Here are results for 16 compounds from ChEMBL document CHEMBL1124878, “Synthesis, phencyclidine-like pharmacology, and antiischemic potential of meta-substituted 1-(1-phenylcyclohexyl)-1,2,3,6-tetrahydropyridines” (J Med Chem, 1990).

Assay [1] concerns the target T1, Glutamate receptor ionotropic, NMDA 2C (Rattus norvegicus, UniProt Q00961). The experiment in a line: Ability to displace [3H]TCP from PCP receptor in tissue homogenate preparation of fresh whole rat brain minus cerebellum. The format is tissue-based.
Assay [2] addresses T1, Glutamate receptor ionotropic, NMDA 2C. The assay can be described thus: Ability to displace [3H]- TCP from PCP receptor in tissue homogenate preparation of fresh whole rat brain minus cerebellum. The format is tissue-based.

T1 sequence (Q00961 whole entry): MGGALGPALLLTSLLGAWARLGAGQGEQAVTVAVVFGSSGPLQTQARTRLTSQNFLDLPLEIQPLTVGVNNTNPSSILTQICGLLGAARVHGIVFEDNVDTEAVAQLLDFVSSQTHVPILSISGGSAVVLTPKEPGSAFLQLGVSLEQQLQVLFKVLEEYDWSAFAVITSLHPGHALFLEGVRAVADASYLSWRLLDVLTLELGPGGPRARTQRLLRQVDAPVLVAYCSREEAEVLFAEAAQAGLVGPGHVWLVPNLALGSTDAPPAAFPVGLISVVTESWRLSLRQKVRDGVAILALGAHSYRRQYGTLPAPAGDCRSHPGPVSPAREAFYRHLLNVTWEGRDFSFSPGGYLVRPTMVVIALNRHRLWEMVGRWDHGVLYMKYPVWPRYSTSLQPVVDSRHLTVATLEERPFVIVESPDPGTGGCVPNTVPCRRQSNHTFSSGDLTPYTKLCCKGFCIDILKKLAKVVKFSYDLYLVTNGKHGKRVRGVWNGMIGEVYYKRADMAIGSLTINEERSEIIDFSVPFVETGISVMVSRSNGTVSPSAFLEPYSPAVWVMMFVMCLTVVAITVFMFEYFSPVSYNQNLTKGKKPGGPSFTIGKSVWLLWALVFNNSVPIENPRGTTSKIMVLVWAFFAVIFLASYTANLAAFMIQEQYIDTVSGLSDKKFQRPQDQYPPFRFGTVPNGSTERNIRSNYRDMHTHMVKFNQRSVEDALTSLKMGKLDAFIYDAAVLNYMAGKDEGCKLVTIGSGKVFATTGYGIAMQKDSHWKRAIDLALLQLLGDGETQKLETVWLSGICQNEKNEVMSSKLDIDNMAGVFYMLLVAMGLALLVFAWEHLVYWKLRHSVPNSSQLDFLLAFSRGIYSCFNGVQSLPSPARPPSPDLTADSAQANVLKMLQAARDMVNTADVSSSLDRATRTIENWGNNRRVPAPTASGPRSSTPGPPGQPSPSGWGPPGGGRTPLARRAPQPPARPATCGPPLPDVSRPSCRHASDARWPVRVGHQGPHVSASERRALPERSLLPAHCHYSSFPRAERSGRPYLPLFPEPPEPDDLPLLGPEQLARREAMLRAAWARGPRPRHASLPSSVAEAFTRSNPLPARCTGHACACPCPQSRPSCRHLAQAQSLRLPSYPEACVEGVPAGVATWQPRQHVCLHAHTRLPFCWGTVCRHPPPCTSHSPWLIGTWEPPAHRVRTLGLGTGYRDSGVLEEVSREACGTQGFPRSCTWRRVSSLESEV

As to `COc1cc(OC)cc(C2(N3CC=CCC3)CCCCC2)c1`, the Ki in assay [1] was 8600 nM.

In assay [2], `C1=CCN(C2(c3ccccc3)CCCCC2)CC1` came in with a Ki of 37 nM. This counts as double-digit nanomolar.

Compound `Fc1cccc(C2(N3CC=CCC3)CCCCC2)c1` had a Ki in assay [2] of 281 nM.

In the case of `CSc1cccc(C2(N3CC=CCC3)CCCCC2)c1`, the Ki in assay [2] was 231 nM. The Ki values of the last two compounds are within 1.5-fold of each other.

Consider `COc1cccc(C2(N3CC=CCC3)CCCCC2)c1`, for which, in assay [1], the Ki is 33 nM.

Turning to `FC(F)(F)c1cccc(C2(N3CC=CCC3)CCCCC2)c1`, affinity in assay [2] was put at a Ki of 422 nM.

As to `C=Cc1cccc(C2(N3CC=CCC3)CCCCC2)c1`, the Ki in assay [2] came to 114 nM.

In assay [1], `C1=CCN(C2(c3cccs3)CCCCC2)CC1` showed a Ki of 12 nM.

Consider `O/N=C/c1cccc(C2(N3CC=CCC3)CCCCC2)c1`, for which, in assay [1], the affinity corresponds to a Ki of 56 nM.

In turn, `CC(=O)Oc1cccc(C2(N3CC=CCC3)CCCCC2)c1` displayed a Ki in assay [2] of 6 nM.

With `C1=CCN(C2(c3cccc(OCc4ccccc4)c3)CCCCC2)CC1`, the Ki in assay [1] was found to be 733 nM.

`C1=CCN(C2(c3cccc(C4OCCO4)c3)CCCCC2)CC1` showed a Ki in assay [1] of 601 nM.

`COCOc1cccc(C2(N3CC=CCC3)CCCCC2)c1` showed a Ki in assay [2] of 92 nM.

`O=Cc1cccc(C2(N3CC=CCC3)CCCCC2)c1` showed a Ki in assay [2] of 324 nM. Compared with the last compound, the Ki is about 3.5-fold higher.

Regarding `Cc1cccc(C2(N3CC=CCC3)CCCCC2)c1`, affinity in assay [2] was put at a Ki of 81 nM.

Compound `Oc1cccc(C2(N3CC=CCC3)CCCCC2)c1` gave a Ki in assay [1] of 7 nM.

Usually Ki stands for the equilibrium dissociation constant of an inhibitor or competing ligand from its target. Low values mean tighter binding, high ones weaker binding.
